In patent publication US20120107323A1, “KINASE PROTEIN BINDING INHIBITORS” (University of Florida, priority 2009, published 2012):

Assays:
[1] = system: C8161 melanoma cells; assay: Cell viability (MTT), C8161; type: cell-based, human
Protocol: (§1) Cell viability (MTT) and CFSE Proliferation assay: Cells were plated in 96-well plates and let adhere overnight. After cell treatment, cell viability was measured by 3-(4,5-dimethylthiazol-2-yl)-2,5-diphenyl tetrazolium bromide (MTT) assay (CellTiter 96® Aqueous, Promega, Madison, Wis.).
(§2) Cell viability and detachment assays: After cells were treated with siRNA transfection, cell viability was measured by 3-(4,5-dimethylthiazol2-yl)-2,5-diphenyl tetrazolium bromide (MTT) assay (CellTiter 96® AQueous, Promega, Madison, Wis.). Briefly, 20 μl of the tetrazolium compound was added to each well. The cells were then incubated at 37° C. for 1 h. The plate was read at 490 nm with a plate reader to determine the viability. In detachment assays, detached and attached cells were harvested separately and counted in a hemocytometer. The percentage of detachment was calculated by dividing the number of detached cells by the total number of cells. Apoptosis assays: After treatment, attached and detached cells were collected, counted and prepared for terminal uridine deoxynucleotidyl transferase (TUNEL) assay by utilizing an APO-BRDU kit (BD Pharmingen, San Diego, Calif.) according to the manufacturer's instructions. Stained cells were analyzed with a fluorescence-activated cell sorting-Calibur flow cytometer (BD Biosciences). Calculation of the percentage of apoptotic cells in the sample was completed with CellQuest software (BD Biosciences). Apoptotic cells were also analyzed by Hoechst staining. Hoechst 33342 (1 µg/rill) was added to the fixed cells and the specimens were mounted on glass coverslips. The slides were viewed under the Zeiss microscope for apoptotic nuclei. The percent of apoptotic cells was calculated as the ratio of apoptotic cells to total number of cells.
(§3) In addition, the effect of INT2-31 on cell viability of esophageal, pancreatic and breast cancer cell lines was analyzed and the IC50 value for each cell line was determined, as shown in Table 1. […] Similar to melanoma results, INT2-31 inhibits viability more in cancer cells compared to normal cells. Sensitivity of the cells to INT2-31 varied and directly correlated to the FAK and IGF-1R expression level of the cells.
To determine the effect on melanoma cell viability, three human melanoma cell lines were exposed to increasing doses of INT2-31 for 72 h and the results compared to human melanocytes. […] The effects of INT2-31 varied in the three cell lines and was possibly related to constitutive FAK and IGF-1R activation with the least sensitive cell line (SK-MEL-28) having the greatest expression of FAK and IGF-1R.

[2] = system: KYSE180 esophageal cancer cells; assay: Cell viability (MTT), KYSE180; type: cell-based; details: Homo sapiens, KYSE-180; KYSE180, 72 hours; read-out: IC50 of INT2-31, cell viability
Protocol: as §1
as §2, with “Calculation of the percentage of apoptotic cells in the sample was completed with CellQuest software (BD Biosciences).” left out, “Hoechst 33342 (1 µg/rill) was added to the fixed cells and the specimens were mounted on glass coverslips. The slides were viewed under the Zeiss microscope for apoptotic nuclei. The percent of apoptotic cells was calculated as the ratio of apoptotic cells to total number of cells.” left out

[3] = system: Panc-1 pancreatic cancer cells; assay: Cell viability (MTT), Panc-1; type: cell-based
Protocol: as §1, §2, §3

[4] = system: BT474 breast cancer cells; assay: Cell viability (MTT), BT474; type: cell-based; details: Homo sapiens, BT-474; BT474, 72 hours; read-out: IC50 of INT2-31, cell viability
Protocol: as §1
as §2, with “Calculation of the percentage of apoptotic cells in the sample was completed with CellQuest software (BD Biosciences).” left out, “Hoechst 33342 (1 µg/rill) was added to the fixed cells and the specimens were mounted on glass coverslips. The slides were viewed under the Zeiss microscope for apoptotic nuclei. The percent of apoptotic cells was calculated as the ratio of apoptotic cells to total number of cells.” left out

[5] = system: C8161 melanoma cells; assay: Detachment assay, C8161 cells; type: cell-based, human; details: C8161, 5 μM, 72 h
Protocol: In detachment assays, detached and attached cells were harvested separately and counted in a hemocytometer. The percentage of detachment was calculated by dividing the number of detached cells by the total number of cells.
(§4) Detachment assay: Cells were plated with and without compound for 24, 48, and 72 h, and detached and attached cells were counted in a hemocytometer. The percent of detachment was calculated by dividing the number of detached cells by the total number of cells and experiments performed in triplicate. Apoptosis assays: After treatment, attached and detached cells were collected, counted and prepared for terminal uridine deoxynucleotidyl transferase (TUNEL) assay by utilizing an APO-BRDU kit (BD Pharmingen, San Diego, Calif.) and cells analyzed with a FACSCalibur cytometer (Becton Dickinson, San Jose, Calif.). In addition, apoptotic cells were analyzed with Hoechst 33342 staining (1 μg/ml). The percent of apoptotic cells was calculated as the ratio of apoptotic cells to total number of cells.

[6] = system: C8161 melanoma cells; assay: Apoptosis by Hoechst staining; type: cell-based, human; details: 5 μM, 72 h
Protocol: as §4
In addition, apoptotic cells were also analyzed by Hoechst staining. To the prepared cells as described above, Hoechst 33342 (1 μg/ml) was added, incubated in the dark room temperature for 10 minutes, and the specimens were mounted on glass coverslips. The slides were viewed under the Zeiss microscope for apoptotic nuclei. The percent of apoptotic cells was calculated as the ratio of apoptotic cells to total number of cells. Over 300 cells per sample were analyzed.

[7] = system: PARP, caspase-9, caspase 8; assay: Western blot of biochemical markers of the apoptotic pathway; type: cell-based

Structure (SMILES): CSc1ncnc2c1ccn2C1O[C@H](COP(=O)(O)O)[C@@H](O)[C@H]1O (stereo partly drawn) [INT2-31, 4-(Methylthio)-7-(5-O-phosphono-D-ribofuranosyl)-{7H-Pyrrolo[2,3-d]pyrimidine}]
- cell viability (in words) ([1]; C8161, MTT): inhibited cell viability in a dose-dependent manner
- IC50 ([1]; Homo sapiens, C8161, 72 hours, read-out: IC50 of INT2-31, cell viability): 0.5 µM
- sensitivity of C8161 cells expressing FAK shRNA compared to parental and mock transfected cells ([1]; MTT, FAK shRNA1 knockdown): significantly less sensitive
- IC50 [2]: 19.8 µM
- IC50 ([3]; Homo sapiens, Panc-1, 72 hours, read-out: IC50 of INT2-31, cell viability): 6.7 µM
- cell viability (in words) ([3]; Panc-1, 72 hours): inhibits the cell viability
- effect of combination with 5-FU on cell viability ([3]; pancreatic cancer cells, 1 μM INT2-31): synergistic effects
- effect of combination with gemcitabine on cell viability ([3]; pancreatic cancer cells, data not shown): only additive
- IC50 [4]: 2.39 µM
- cells detached from the plate [5]: 7%
- induction of apoptosis, Hoescht positive cells [6]: greater than 50%
- PARP and caspase-9 cleavage ([7]; 48 hours of treatment): PARP and caspase-9 cleavage
- caspase 8 levels ([7]; Western blot): no significant effect
